US6608004B2, “Substituted 2-aryl-1,2,4-triazine-3,5-di(thi)ones” (priority 1999, dated 2003)

Tests used:
[1] = system: weeds; assay: Post-Emergence Test (Example B), activity against weeds; format: in vivo; details: test plants of a height of 5-15 cm sprayed, rated after three weeks
Text: (§1) Solvent: 5 parts by weight of acetone
(§2) Emulsifier: 1 part by weight of alkylaryl polyglycol ether
(§3) After three weeks, the degree of damage to the plants is rated in % damage in comparison to the development of the untreated control.

[2] = logP determination by HPLC, reversed-phase column (C 18), EEC Directive 79/831 Annex V.A8; details: reversed-phase HPLC column (C 18), pH 2
Text: (a) Mobile phases for the determination in the acidic range: 0.1% aqueous phosphoric acid, acetonitrile; linear gradient from 10% acetonitrile to 90% acetonitrile—the corresponding measurement results are labelled in Table 1 with ^a).
(b) Mobile phases for the determination in the neutral range: 0.01 molar aqueous phosphate buffer solution, acetonitrile; linear gradient from 10% acetonitrile to 90% acetonitrile—the corresponding measurement results are labelled in Table 1 with ^b).

[3] = system: crop plants, such as, for example, barley and wheat; assay: Post-Emergence Test (Example B), tolerance by crop plants; details: post-emergence; barley and wheat; rated after three weeks
Text: as §1, §2, §3

[4] = system: crop plants, such as, for example, barley, wheat, rapeseed, soya and sugar beet; assay: Pre-Emergence Test (Example A), tolerance by crop plants; format: in vivo; details: pre-emergence; barley, wheat, rapeseed, soya and sugar beet; rated after three weeks
Text: as §1, §2
(§4) Seeds of the test plants are sown in normal soil.

[5] = system: weeds; assay: Pre-Emergence Test (Example A), activity against weeds; format: in vivo; details: soil sprayed about 24 hours after sowing, rated after three weeks
Text: as §1, §2, §4
0%=no effect (like untreated control)

| Compound | melting point [°C] | activity against weeds (degree of damage) [1] | chromatographic logP [2] | tolerance by crop plants [3] | tolerance by crop plants [4] | activity against weeds (degree of damage) [5] |
| --- | --- | --- | --- | --- | --- | --- |
| C=CC(=O)N(c1cc(-n2ncc(=O)n(C)c2=O)c(F)cc1C#N)S(=O)(=O)CC [Example 2, 2-[5-(N-acryloyl-N-ethylsulphonylamino)-4-cyano-2-fluoro-phenyl]-4-methyl-1,2,4-triazine-3,5(2H,4H)-dione] | 118 | very strong activity | 1.97 | essentially being tolerated well | essentially being tolerated well | very strong activity |
| CCS(=O)(=O)Nc1cc(-n2ncc(=O)n(C)c2=O)c(F)cc1C#N [Example (II-1), 2-(2-fluoro-4-cyano-5-ethylsulphonylamino-phenyl)-4-methyl-1,2,4-triazine-3,5(2H,4H)-dione] | 233 |  | 1.66 |  |  |  |
